Experimental data published in patent US8207185B2, “CaMKKβ as a target for treating obesity” (Duke University, priority 2006, dated 2012).

Legend:
NPY and AgRP mRNA = experiment: Third-ventricle infusion of STO-609 in living mice: hypothalamic NPY and AgRP mRNA quantified by RT-PCR; format: in vivo; details: 20 uM STO-609 by osmotic mini-pump, 0.5 ul/hr for 7 days, into third ventricle; versus NaOH vehicle; FIG. 1
Description: (§1) To test the effect of STO-609 on feeding behavior, we stereotaxically implanted cannula into the third ventricle of living mice and attached the cannula to osmotic min-pumps that distribute fluids at a rate of 0.5 ul/hr for 7 days. Half of the pumps contained 20 uM STO-609 whereas the other half contained the NaOH vehicle. We monitored body weight together with food and water intake daily for 7 days. Then the mice were sacrificed, hypothalami were removed, RNA extracted and the mRNAs encoding NPY and AgRP were quantified by RT-PCR. […] In addition, STO-609 decreased the total amount of food consumed over the 7 day period by 60% (FIG. 2, left panel) but had no effect on water consumption. In addition, whereas the WT mice gained body weight during the 7 day period (about 4% relative to the starting weight) the STO-609 treated mice lost weight (about 7% relative to the starting weight) (FIG. 2, right panel).

[1] = system: feeding behavior of living mice; experiment: Third-ventricle infusion of STO-609 in living mice: food intake, water intake and body weight over 7 days; format: in vivo; details: 20 uM STO-609, 0.5 ul/hr for 7 days
Description: as §1

O=C(O)c1ccc2c3c1cccc3c(=O)n1c3ccccc3nc21 [STO-609]
AgRP mRNA in hypothalamic RNA (NPY and AgRP mRNA): highly statistically significant decreases
NPY mRNA in hypothalamic RNA (NPY and AgRP mRNA): highly statistically significant decreases
effect on water consumption [1]: no effect
body weight lost relative to the starting weight ([1]; 7 day period, FIG. 2, right panel): about 7%
decrease of total amount of food consumed over the 7 day period ([1]; FIG. 2, left panel): 60%
